Assays:
Test in all cases: relative viability (nuclei count vs DMSO), 5 days (fraction); higher = more cells survive
Venetoclax + Dasatinib = compound: CC1(C)CCC(CN2CCN(c3ccc(C(=O)NS(=O)(=O)c4ccc(NCC5CCOCC5)c([N+](=O)[O-])c4)c(Oc4cnc5[nH]ccc5c4)c3)CC2)=C(c2ccc(Cl)cc2)C1 [Venetoclax] + Cc1nc(Nc2ncc(C(=O)Nc3c(C)cccc3Cl)s2)cc(N2CCN(CCO)CC2)n1 [Dasatinib] (partner 0.075 µM)
Summary of the method: (§1)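 Relative viability equals treated-well nuclei counts divided by vehicle-well nuclei counts. Counts came from 4× images of lung cancer cell lines grown in 1536-well plates for 5 days after pin-tool dosing on the day after seeding. Dosing used one drug alone or a fixed anchor-drug dose plus five library-drug doses (not always all listed) in √10 steps, and values are medians of duplicate plates.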

Selumetinib + Bortezomib = compound: Cn1cnc2c(F)c(Nc3ccc(Br)cc3Cl)c(C(=O)NOCCO)cc21 [Selumetinib] + CC(C)C[C@H](NC(=O)[C@H](Cc1ccccc1)NC(=O)c1cnccn1)B(O)O [Bortezomib] (partner 0.002 µM)
Summary of the method: as §1

Selumetinib + Tozasertib = compound: Cn1cnc2c(F)c(Nc3ccc(Br)cc3Cl)c(C(=O)NOCCO)cc21 [Selumetinib] + Cc1cc(Nc2cc(N3CCN(C)CC3)nc(Sc3ccc(NC(=O)C4CC4)cc3)n2)n[nH]1 [Tozasertib] (partner 0.1 µM)
Summary of the method: as §1

Selumetinib + Pemetrexed = compound: Cn1cnc2c(F)c(Nc3ccc(Br)cc3Cl)c(C(=O)NOCCO)cc21 [Selumetinib] + Nc1nc2[nH]cc(CCc3ccc(C(=O)N[C@@H](CCC(=O)O)C(=O)O)cc3)c2c(=O)[nH]1 [Pemetrexed] (partner 0.2 µM)
Summary of the method: as §1

| Cell Line | relative viability (Venetoclax + Dasatinib; first compound 0.01 µM) | relative viability (Venetoclax + Dasatinib; first compound 0.03162 µM) | relative viability (Venetoclax + Dasatinib; first compound 0.1 µM) | relative viability (Venetoclax + Dasatinib; first compound 0.3162 µM) | relative viability (Venetoclax + Dasatinib; first compound 1 µM) | relative viability (Selumetinib + Bortezomib; first compound 0.02 µM) | relative viability (Selumetinib + Bortezomib; first compound 0.06325 µM) | relative viability (Selumetinib + Bortezomib; first compound 0.2 µM) | relative viability (Selumetinib + Bortezomib; first compound 0.6325 µM) | relative viability (Selumetinib + Tozasertib; first compound 0.02 µM) | relative viability (Selumetinib + Tozasertib; first compound 0.06325 µM) | relative viability (Selumetinib + Tozasertib; first compound 0.2 µM) | relative viability (Selumetinib + Tozasertib; first compound 0.6325 µM) | relative viability (Selumetinib + Pemetrexed; first compound 0.02 µM) | relative viability (Selumetinib + Pemetrexed; first compound 0.06325 µM) | relative viability (Selumetinib + Pemetrexed; first compound 0.2 µM) | relative viability (Selumetinib + Pemetrexed; first compound 0.6325 µM) |
| --- | --- | --- | --- | --- | --- | --- | --- | --- | --- | --- | --- | --- | --- | --- | --- | --- | --- |
| HOP-62 | 0.557 | 0.582 | 0.616 | 0.709 | 0.625 | 1.06 | 0.779 | 0.496 | 0.475 | 0.377 | 0.317 | 0.376 | 0.328 | 0.31 | 0.382 | 0.348 | 0.321 |
| IA-LM | – | – | – | – | – | 0.742 | 0.497 | 0.304 | 0.257 | – | – | – | – | – | – | – | – |
| LC-2-ad | 0.575 | 0.612 | 0.522 | 0.671 | 0.544 | 1.05 | 1.01 | 0.831 | 0.943 | 0.517 | 0.391 | 0.393 | 0.386 | 0.263 | 0.269 | 0.273 | 0.277 |
| LCLC-97TM1 | 0.856 | 0.888 | 0.764 | 0.733 | 0.802 | 0.522 | 0.379 | 0.294 | 0.157 | 0.201 | 0.255 | 0.216 | 0.223 | 0.186 | 0.237 | 0.219 | 0.258 |
| LCLC-103H | 0.48 | 0.439 | 0.479 | 0.463 | 0.45 | 1.01 | 1.06 | 0.993 | 0.978 | 0.514 | 0.458 | 0.435 | 0.349 | 0.437 | 0.479 | 0.5 | 0.519 |
| LK-2 | 0.403 | 0.319 | 0.259 | 0.247 | 0.255 | – | – | – | – | 0.17 | 0.189 | 0.221 | 0.144 | 0.282 | 0.349 | 0.352 | 0.375 |
| LOU-NH91 | 0.511 | 0.642 | 0.532 | 0.58 | 0.495 | 0.465 | 0.479 | 0.476 | 0.479 | 0.648 | 0.679 | 0.606 | 0.534 | 0.438 | 0.397 | 0.458 | 0.385 |
| LU99A | 0.625 | 0.632 | 0.659 | 0.516 | 0.583 | 1.35 | 1.05 | 1.18 | 1.37 | 0.274 | 0.278 | 0.266 | 0.276 | 0.195 | 0.184 | 0.184 | 0.245 |
| LXF-289 | 0.137 | 0.262 | 0.242 | 0.253 | 0.166 | 0.934 | 0.891 | 0.8 | 0.748 | 0.219 | 0.229 | 0.191 | 0.159 | 0.865 | 0.848 | 0.763 | 0.808 |
| NCI-H358 | 0.309 | 0.17 | 0.15 | 0.158 | 0.161 | – | – | – | – | 0.128 | 0.0891 | 0.0985 | 0.0883 | 0.173 | 0.165 | 0.144 | 0.177 |
| NCI-H522 | 0.938 | 0.951 | 0.805 | 0.8 | 0.848 | – | – | – | – | 0.567 | 0.515 | 0.537 | 0.505 | 0.962 | 0.942 | 1 | 0.783 |
| NCI-H727 | 0.421 | 0.357 | 0.35 | 0.415 | 0.447 | 0.58 | 0.351 | 0.359 | 0.337 | 0.403 | 0.357 | 0.338 | 0.294 | – | – | – | – |
| NCI-H1299 | – | – | – | – | – | 1.08 | 1.09 | 1.07 | 0.977 | – | – | – | – | – | – | – | – |
| NCI-H1395 | 0.449 | 0.406 | 0.392 | 0.442 | 0.409 | – | – | – | – | 0.714 | 0.702 | 0.718 | 0.748 | 0.837 | 0.868 | 0.694 | 0.92 |
| NCI-H1563 | 0.531 | 0.516 | 0.445 | 0.442 | 0.461 | 0.804 | 0.68 | 0.726 | 0.786 | – | – | – | – | 0.835 | 0.778 | 0.918 | 0.898 |
| NCI-H1623 | 0.565 | 0.595 | 0.534 | 0.515 | 0.508 | – | – | – | – | 0.343 | 0.342 | 0.351 | 0.361 | – | – | – | – |
| NCI-H1648 | – | – | – | – | – | – | – | – | – | 0.54 | 0.488 | 0.487 | 0.456 | – | 0.838 | 0.956 | 0.904 |
| NCI-H1703 | – | – | – | – | – | 0.309 | 0.255 | 0.403 | 0.434 | – | – | – | – | – | – | – | – |
| NCI-H1792 | 0.843 | 0.803 | 0.556 | 0.759 | 0.755 | 0.852 | 0.789 | 0.706 | 0.677 | – | – | – | – | 0.637 | 0.648 | 0.634 | 0.557 |
| NCI-H1793 | 0.448 | 0.355 | 0.291 | 0.358 | 0.27 | – | – | – | – | 0.314 | 0.269 | 0.235 | 0.221 | 0.782 | 0.601 | 0.435 | 0.517 |
| NCI-H1944 | 0.283 | 0.235 | 0.201 | 0.222 | 0.227 | – | – | – | – | 0.238 | 0.228 | 0.233 | 0.203 | 0.573 | 0.476 | 0.405 | 0.484 |
| NCI-H2170 | 0.569 | 0.508 | 0.373 | 0.556 | 0.502 | – | – | – | – | 0.746 | 0.848 | 0.661 | 0.657 | 0.236 | 0.266 | 0.254 | 0.265 |
| NCI-H2342 | 0.436 | 0.341 | 0.325 | 0.288 | 0.331 | – | – | – | – | 0.461 | 0.546 | 0.473 | 0.576 | 0.778 | 0.7 | 0.758 | 0.839 |
| SK-MES-1 | 0.4 | 0.383 | 0.329 | 0.408 | 0.376 | – | – | – | – | 1.08 | 0.894 | 0.949 | 0.676 | 0.875 | 0.746 | 0.737 | 0.461 |
| SW 900 | 0.544 | 0.625 | 0.645 | 0.855 | 0.434 | – | – | – | – | 0.609 | 0.517 | 0.564 | 0.478 | 0.474 | 0.449 | 0.454 | 0.441 |

Source: the supplement of paper PMC10307832
